Active and inactive are the calls of the source. The rule behind the calls is not given here.
Legend:
[1] = Drug metabolism in rat liver microsome assessed as formation of glucuronide metabolite (2S,3S,4S,5R,6S)-6-(4-((1R,2S)-3-(4-benzylpiperidin-1-yl)-1-hydroxy-2-methylpropyl)phenoxy)-3,4,5-trihydroxytetrahydro-2H-pyran-2-carboxylic acid in presence of NADPH/UDP-GA by LC-MS analysis; type: ADME; conditions: microsomes
[2] = target: Sigma non-opioid intracellular receptor 1 (Cavia porcellus, UniProt Q60492); assay: Displacement of [3H]-(+)-pentazocine from sigma1 receptor in guinea pig brain membrane assessed as inhibition constant measured after 120 mins by scintillation counting method; type: cell membranes
[3] = Lipophilicity, log D of compound at pH 7.4 by LC-MS analysis; type: physicochemical; conditions: buffer
[4] = Drug metabolism in rat liver microsome assessed as formation of glucuronide metabolite (2S,3S,4S,5R,6R)-6-(5-(3-(4-(4-fluorobenzyl)piperidin-1-yl)prop-1-yn-1-yl)-1H-indazol-1-yl)-3,4,5-trihydroxytetrahydro-2H-pyran-2-carboxylic acid in presence of NADPH/UDP-GA by LC-MS analysis; type: ADME; conditions: microsomes
[5] = target: T1, Glutamate receptor ionotropic, NMDA 2B (Homo sapiens, UniProt Q05586+Q13224); assay: Displacement of [3H]ifenprodil from human GluN2B expressed in mouse L-M(TK-) cell membrane coexpressing GluN1a assessed as inhibition constant measured after 120 mins by competitive binding assay; type: cell membranes
[6] = target: T2, Sigma intracellular receptor 2 (Rattus norvegicus, UniProt Q5U3Y7); assay: Displacement of [3H]di-o-tolylguanidine from sigma2 receptor in rat liver membrane assessed as inhibition constant measured after 120 mins by scintillation counting method; type: cell membranes
T2 sequence (Q5U3Y7 whole entry): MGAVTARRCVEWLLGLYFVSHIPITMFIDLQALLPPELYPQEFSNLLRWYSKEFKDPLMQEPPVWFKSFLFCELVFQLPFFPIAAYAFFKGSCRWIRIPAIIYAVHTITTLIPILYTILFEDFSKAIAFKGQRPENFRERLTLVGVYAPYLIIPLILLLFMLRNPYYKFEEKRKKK

[7] = target: Glutamate receptor ionotropic, NMDA 2B (Homo sapiens) (UniProt Q13224); assay: Antagonist activity at GluN2B receptor (unknown origin) expressed in Xenopus oocytes coexpressing GluN1a at 10 uM at -70 mV holding potential in presence of (S)-glutamate/glycine by TEVC analysis relative to control; type: cell-based; conditions: Oocyte, filed as antagonist
[8] = target: T1, Glutamate receptor ionotropic, NMDA 2B; assay: Antagonist activity at GluN2B receptor (unknown origin) expressed in Xenopus oocytes coexpressing GluN1a at -70 mV holding potential in presence of (S)-glutamate/glycine by TEVC analysis; type: cell-based, Oocyte
[9] = Metabolic stability in rat liver microsome assessed as intact compound incubated for 90 mins in presence of NADPH by LC-MS analysis; type: ADME; conditions: liver microsomes, read-out: Stability
[10] = Drug metabolism in rat liver microsome assessed as formation of glucuronide metabolite (2S,3S,4S,5R,6R)-6-(5-((S)-3-(4-benzylpiperidin-1-yl)-1-hydroxypropyl)-1H-indazol-1-yl)-3,4,5-trihydroxytetrahydro-2H-pyran-2-carboxylic acid in presence of NADPH/UDP-GA by LC-MS analysis; type: ADME; conditions: microsomes
[11] = Drug metabolism in rat liver microsome assessed as formation of glucuronide metabolite (2S,3S,4S,5R,6S)-6-(4-(3-(4-(4-fluorobenzyl)piperidin-1-yl)prop-1-yn-1-yl)phenoxy)-3,4,5-trihydroxytetrahydro-2H-pyran-2-carboxylic acid in presence of NADPH/UDP-GA by LC-MS analysis; type: ADME; conditions: microsomes
[12] = target: Glutamate receptor ionotropic, NMDA 2B (Homo sapiens) (UniProt Q13224); assay: Antagonist activity at GluN2B receptor (unknown origin) expressed in Xenopus oocytes coexpressing GluN1a at 1 uM at -70 mV holding potential in presence of (S)-glutamate/glycine by TEVC analysis; type: cell-based; conditions: Oocyte, filed as antagonist
[13] = target: Glutamate NMDA receptor; GRIN1/GRIN2B (Homo sapiens, UniProt Q05586+Q13224); assay: Antagonist activity at GluN1A/GluN2B receptor (unknown origin) expressed in Xenopus oocytes by voltage clamp method; type: cell-based, Oocyte
[14] = Drug metabolism in rat liver microsome assessed as formation of glucuronide metabolite (2S,3S,4S,5R,6R)-6-(5-((R)-3-(4-benzylpiperidin-1-yl)-1-hydroxypropyl)-1H-indazol-1-yl)-3,4,5-trihydroxytetrahydro-2H-pyran-2-carboxylic acid in presence of NADPH/UDP-GA by LC-MS analysis; type: ADME; conditions: microsomes

Sigma non-opioid intracellular receptor 1, sequence (Q60492 whole entry): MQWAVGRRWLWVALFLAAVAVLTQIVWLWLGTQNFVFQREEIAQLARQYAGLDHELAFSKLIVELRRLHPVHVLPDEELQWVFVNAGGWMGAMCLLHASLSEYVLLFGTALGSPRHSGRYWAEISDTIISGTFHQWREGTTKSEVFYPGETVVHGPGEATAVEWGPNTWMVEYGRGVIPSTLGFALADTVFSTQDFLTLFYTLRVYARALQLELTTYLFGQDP
T1 sequence (Q13224 whole entry, one chain of several): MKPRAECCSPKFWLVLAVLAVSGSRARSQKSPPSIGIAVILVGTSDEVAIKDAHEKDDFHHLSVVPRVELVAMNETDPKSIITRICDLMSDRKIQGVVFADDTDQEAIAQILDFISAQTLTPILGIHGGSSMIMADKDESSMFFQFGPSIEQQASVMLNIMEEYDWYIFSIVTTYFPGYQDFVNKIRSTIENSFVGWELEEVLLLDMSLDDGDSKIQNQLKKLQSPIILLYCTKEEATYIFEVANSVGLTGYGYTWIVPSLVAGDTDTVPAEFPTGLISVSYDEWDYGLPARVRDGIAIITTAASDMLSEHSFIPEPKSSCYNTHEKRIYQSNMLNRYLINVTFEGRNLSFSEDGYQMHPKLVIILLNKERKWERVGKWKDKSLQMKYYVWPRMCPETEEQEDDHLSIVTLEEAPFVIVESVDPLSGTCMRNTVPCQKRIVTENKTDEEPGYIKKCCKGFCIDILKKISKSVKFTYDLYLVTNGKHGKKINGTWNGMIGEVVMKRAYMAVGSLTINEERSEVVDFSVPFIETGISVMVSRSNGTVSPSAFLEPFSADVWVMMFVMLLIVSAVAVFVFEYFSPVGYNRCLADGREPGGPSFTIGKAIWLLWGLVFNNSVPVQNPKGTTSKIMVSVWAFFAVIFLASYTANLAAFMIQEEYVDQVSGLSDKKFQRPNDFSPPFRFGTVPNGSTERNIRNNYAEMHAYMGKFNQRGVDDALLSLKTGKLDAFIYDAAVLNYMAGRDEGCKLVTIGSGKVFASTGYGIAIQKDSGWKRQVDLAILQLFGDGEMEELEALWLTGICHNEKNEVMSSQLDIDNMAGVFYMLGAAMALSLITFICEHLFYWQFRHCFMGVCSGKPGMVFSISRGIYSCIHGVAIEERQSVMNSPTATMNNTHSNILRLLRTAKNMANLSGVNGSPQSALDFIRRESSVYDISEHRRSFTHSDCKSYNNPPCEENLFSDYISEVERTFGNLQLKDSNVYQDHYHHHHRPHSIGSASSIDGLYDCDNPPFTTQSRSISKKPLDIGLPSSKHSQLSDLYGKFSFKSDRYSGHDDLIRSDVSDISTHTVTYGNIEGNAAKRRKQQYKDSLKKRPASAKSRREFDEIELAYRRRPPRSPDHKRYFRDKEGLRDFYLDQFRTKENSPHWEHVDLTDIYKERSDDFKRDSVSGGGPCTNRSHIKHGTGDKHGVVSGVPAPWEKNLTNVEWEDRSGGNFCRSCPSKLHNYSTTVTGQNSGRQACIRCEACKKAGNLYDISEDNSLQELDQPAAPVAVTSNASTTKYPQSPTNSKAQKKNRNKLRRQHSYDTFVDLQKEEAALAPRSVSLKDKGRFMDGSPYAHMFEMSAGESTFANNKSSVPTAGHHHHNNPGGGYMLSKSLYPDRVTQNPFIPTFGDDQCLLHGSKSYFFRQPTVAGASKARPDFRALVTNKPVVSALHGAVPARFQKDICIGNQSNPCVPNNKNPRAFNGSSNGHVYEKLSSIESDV
Glutamate receptor ionotropic, NMDA 2B (Homo sapiens), sequence (Q13224 27-1484 limits assumed): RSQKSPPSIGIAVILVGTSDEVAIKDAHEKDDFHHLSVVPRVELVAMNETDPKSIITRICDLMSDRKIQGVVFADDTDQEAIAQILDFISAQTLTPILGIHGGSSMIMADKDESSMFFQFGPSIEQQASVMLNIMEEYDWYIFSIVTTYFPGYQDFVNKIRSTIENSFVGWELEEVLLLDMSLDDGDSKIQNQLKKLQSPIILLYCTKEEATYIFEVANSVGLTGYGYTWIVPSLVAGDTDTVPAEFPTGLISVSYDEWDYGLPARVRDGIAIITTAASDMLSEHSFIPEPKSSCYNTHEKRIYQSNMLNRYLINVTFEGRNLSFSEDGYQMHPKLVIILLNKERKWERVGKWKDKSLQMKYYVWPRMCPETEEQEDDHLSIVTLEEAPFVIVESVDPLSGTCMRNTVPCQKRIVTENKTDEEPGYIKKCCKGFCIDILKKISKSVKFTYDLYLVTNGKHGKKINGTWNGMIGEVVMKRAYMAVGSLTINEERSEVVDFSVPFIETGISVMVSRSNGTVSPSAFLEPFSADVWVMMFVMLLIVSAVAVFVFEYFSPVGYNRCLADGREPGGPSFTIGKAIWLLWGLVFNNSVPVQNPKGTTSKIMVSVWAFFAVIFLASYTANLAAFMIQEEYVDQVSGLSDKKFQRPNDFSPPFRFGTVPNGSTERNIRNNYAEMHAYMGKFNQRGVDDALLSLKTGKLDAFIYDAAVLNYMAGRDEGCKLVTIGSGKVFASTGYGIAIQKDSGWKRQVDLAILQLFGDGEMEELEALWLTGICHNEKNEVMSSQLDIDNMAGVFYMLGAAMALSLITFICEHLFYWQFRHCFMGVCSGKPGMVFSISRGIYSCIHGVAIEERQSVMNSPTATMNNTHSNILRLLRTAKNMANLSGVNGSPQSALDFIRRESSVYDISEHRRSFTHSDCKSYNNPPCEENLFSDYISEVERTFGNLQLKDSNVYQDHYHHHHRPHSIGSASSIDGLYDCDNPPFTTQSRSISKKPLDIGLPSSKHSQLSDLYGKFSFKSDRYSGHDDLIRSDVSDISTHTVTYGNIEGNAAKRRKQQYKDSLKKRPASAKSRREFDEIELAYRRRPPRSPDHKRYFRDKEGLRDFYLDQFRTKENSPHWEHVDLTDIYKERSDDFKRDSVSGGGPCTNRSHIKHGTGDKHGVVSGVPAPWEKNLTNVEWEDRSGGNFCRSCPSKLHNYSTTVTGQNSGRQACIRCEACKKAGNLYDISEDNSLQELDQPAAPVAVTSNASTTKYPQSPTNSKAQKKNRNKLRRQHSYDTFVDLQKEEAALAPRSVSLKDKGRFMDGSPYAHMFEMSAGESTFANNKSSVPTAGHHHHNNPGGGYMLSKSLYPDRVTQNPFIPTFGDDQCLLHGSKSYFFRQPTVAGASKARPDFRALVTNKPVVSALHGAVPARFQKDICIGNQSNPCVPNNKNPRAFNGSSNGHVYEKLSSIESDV
Glutamate NMDA receptor; GRIN1/GRIN2B, sequence (Q13224 whole entry, other chains not shown): as the sequence (Q13224 whole entry, one chain of several) above

Compound: C[C@@H](CN1CCC(Cc2ccccc2)CC1)[C@@H](O)c1ccc(O)cc1
- Drug metabolism [1]: Metabolite_Detected

Compound: Fc1ccc(CC2CCN(CC#Cc3ccc4[nH]ncc4c3)CC2)cc1
- Ki [2]: 6.6 nM
- logD [3]: 4.35
- Drug metabolism [4]: Metabolite_Notdetected
- Ki [5]: 13 nM
- Ki [6]: 13 nM

Compound: Fc1ccc(CC2CCN(CCCc3ccc4[nH]ncc4c3)CC2)cc1
- Ki [2]: 4.2 nM
- Ki [5]: 13 nM
- Ki [6]: 14 nM

Compound: c1ccc(CC2CCN(CCCc3ccc4[nH]ncc4c3)CC2)cc1
- Ki [2]: 7.5 nM
- logD [3]: 2.63
- inhibition [7]: > 80%
- Ki [5]: 5.7 nM
- Ki [6]: 12 nM

Compound: Cn1ncc2cc(C#CCN3CCC(Cc4ccc(F)cc4)CC3)ccc21
- Ki [2]: 40 nM
- Ki [5]: 29 nM
- Ki [6]: 63 nM

Compound: C(#Cc1ccc2cn[nH]c2c1)CN1CCC(Cc2ccccc2)CC1
- Ki [2]: 12 nM
- Ki [5]: 53 nM
- Ki [6]: 520 nM

Compound: Fc1ccccc1CC1CCN(CC#Cc2ccc3[nH]ncc3c2)CC1
- Ki [2]: 57 nM
- Ki [5]: 25 nM
- Ki [6]: 31 nM

Compound: OC(CCN1CCC(Cc2ccc(F)cc2)CC1)c1ccc2[nH]ncc2c1 (stereo not given)
- Ki [2]: 12 nM
- logD [3]: 2.02
- Ki [5]: 32 nM
- Ki [6]: 18 nM

Compound: O=C(CCN1CCC(Cc2ccc(F)cc2)CC1)c1ccc2[nH]ncc2c1
- Ki [2]: 21 nM
- Ki [5]: 56 nM
- Ki [6]: 51 nM

Compound: O[C@@H](CCN1CCC(Cc2ccccc2)CC1)c1ccc2[nH]ncc2c1
- Ki [2]: 86 nM
- IC50 [8]: 72 nM
- Ki [5]: 93 nM
- Ki [6]: 124 nM
- remaining at 1.5 h [9]: ~67%
- Drug metabolism [10]: Metabolite_Notdetected

Compound: Oc1ccc(C#CCN2CCC(Cc3ccc(F)cc3)CC2)cc1
- Ki [2]: 36 nM
- logD [3]: 4.4
- Drug metabolism [11]: Metabolite_Detected
- Ki [5]: 12 nM
- Ki [6]: 37 nM

Compound: Fc1ccc(CC2CCN(CC#Cc3ccc4cn[nH]c4c3)CC2)cc1
- Ki [2]: 26 nM
- Ki [5]: 35 nM
- Ki [6]: 850 nM

Compound: Cn1cc2cc(C#CCN3CCC(Cc4ccccc4)CC3)ccc2n1
- Ki [2]: 23 nM
- Ki [5]: 136 nM
- Ki [6]: 63 nM

Compound: C(=C\c1ccc2[nH]ncc2c1)/CN1CCC(Cc2ccccc2)CC1
- Ki [2]: 2.7 nM
- Ki [5]: 6.6 nM
- Ki [6]: 10 nM

Compound: Fc1ccc(CC2CCN(C/C=C\c3ccc4[nH]ncc4c3)CC2)cc1
- Ki [2]: 77 nM
- Ki [5]: 42 nM
- Ki [6]: 97 nM

Compound: C(=C/c1ccc2[nH]ncc2c1)/CN1CCC(Cc2ccccc2)CC1
- Ki [2]: 562 nM
- Ki [5]: 120 nM
- Ki [6]: 135 nM

Compound: Cn1cc2cc(C#CCN3CCC(Cc4ccc(F)cc4)CC3)ccc2n1
- Ki [2]: 32 nM
- Ki [5]: 182 nM
- Ki [6]: 151 nM

Compound: Fc1ccc(CC2CCN(C/C=C/c3ccc4[nH]ncc4c3)CC2)cc1
- Ki [2]: 10 nM
- Ki [5]: 20 nM
- Ki [6]: 37 nM

Compound: OC(CCN1CCC(Cc2ccccc2)CC1)c1ccc2[nH]ncc2c1 (stereo not given)
- Ki [2]: 55 nM
- inhibition [12]: Active
- logD [3]: 1.75
- inhibition [7]: > 80%
- Ki [5]: 38 nM
- Ki [6]: 88 nM

Compound: Oc1ccc(C#CCN2CCC(Cc3ccccc3)CC2)cc1
- IC50 [13]: 100 nM

Compound: Cn1ncc2cc(C#CCN3CCC(Cc4ccccc4)CC3)ccc21
- Ki [2]: 20 nM
- Ki [5]: 38 nM
- Ki [6]: 320 nM

Compound: O[C@H](CCN1CCC(Cc2ccccc2)CC1)c1ccc2[nH]ncc2c1
- Ki [2]: 58 nM
- IC50 [8]: 62 nM
- Drug metabolism [14]: Metabolite_Notdetected
- Ki [5]: 265 nM
- Ki [6]: 241 nM
- remaining at 1.5 h [9]: ~67%

Compound: O=C(CCN1CCC(Cc2ccccc2F)CC1)c1ccc2[nH]ncc2c1
- Ki [2]: 17 nM
- Ki [5]: 20 nM
- Ki [6]: 19 nM

Compound: OC(CCN1CCC(Cc2ccccc2F)CC1)c1ccc2[nH]ncc2c1 (stereo not given)
- Ki [2]: 224 nM
- Ki [5]: 38 nM
- Ki [6]: 119 nM

Compound: O=C(CCN1CCC(Cc2ccccc2)CC1)c1ccc2[nH]ncc2c1
- Ki [2]: 8.8 nM
- inhibition [12]: Active
- logD [3]: 2.64
- inhibition [7]: > 80%
- Ki [5]: 18 nM
- Ki [6]: 18 nM

Compound: C(#Cc1ccc2[nH]ncc2c1)CN1CCC(Cc2ccccc2)CC1
- Ki [2]: 26 nM
- logD [3]: 4.17
- IC50 [13]: 380 nM
- Ki [5]: 11 nM
- Ki [6]: 11 nM

Reference: ChEMBL document CHEMBL5360654, “Indazole as a Phenol Bioisostere: Structure-Affinity Relationships of GluN2B-Selective NMDA Receptor Antagonists” (J Med Chem, 2023)
